Results reported in patent US5580757A, “Cloning and expression of biologically active α-galactosidase A as a fusion protein” (The Mount Sinai School of Medicine of the City University …, priority 1994, dated 1996).
Read-outs that look alike come from different tables or passages of the source.

Key:
[1] = target: human α-Gal A purified from spleen (Homo sapiens, UniProt P06280); conditions: read-out: Km (4-MU-α-D-Gal); cited from earlier work
[2] = target: human α-Gal A purified from plasma (Homo sapiens, UniProt P06280); conditions: read-out: Km (4-MU-α-D-Gal); cited from earlier work
[3] = system: CHO cells secreting recombinant α-Gal A; assay: Effect of glycosylation inhibitors on the secretion of recombinant α-Gal A; format: cell-based, Chinese hamster; conditions: recombinant CHO cultures, FIG. 15; concentration not given
Source text: FIG. 15. Effect of glycosylation inhibitors on the secretion of recombinant α-Gal.

[4] = target: α-Gal A-Protein A domain E fusion protein (human; Staphylococcus aureus)
[5] = target: recombinant human α-galactosidase A secreted by CHO DG5.3 cells (human)
[6] = target: recombinant human α-galactosidase A secreted by CHO DG5.3 cells (human); remark: listed apart in the source
[7] = target: Sambucus nigra agglutinin (Sambucus nigra); assay: SNA-Sepharose chromatography of secreted enzyme
[8] = substrate: Cc1cc(=O)oc2cc(O[C@H]3O[C@H](CO)[C@H](O)[C@H](O)[C@H]3O)ccc12; assay: purified protein, by the assay type; conditions: other: recombinant α-Gal A; artificial substrate; pH 4.6; 37.0 °C

For `Cc1cc(=O)oc2cc(O[C@H]3O[C@H](CO)[C@H](O)[C@H](O)[C@H]3O)ccc12` [4-MU-α-D-galactopyranoside, 4-methylumbelliferyl-α-D-galactopyranoside], the Km [1] is given as 2500 µM and the Km [2] is given as 1900 µM.

In the case of `OC[C@H]1NC[C@@H](O)[C@@H](O)[C@@H]1O` [deoxymannojirimycin], the “α-Gal A secretion rate” value [3] is reported as “remains the same as the controls”.

With `OC[C@H]1NC[C@H](O)[C@@H](O)[C@@H]1O` [deoxynojirimycin] the “α-Gal A secretion rate” value [3] was “remains the same as the controls”.

For `O[C@H]1[C@H]2[C@H](O)CCCN2C[C@H]1O` [swainsonine], the “α-Gal A secretion rate” value [3] was “remains the same as the controls”.

In the case of Collagenase (enzyme), the % Of Recovered α-Gal A Activity in the IgG column flow-through after collagenase treatment [4] is reported as 89%.

For endoglycosidase F (enzyme), the shift in mobility on SDS-PAGE [5] was 4 kDa.

“peptide:N-glycosidase F (from UniProt P21163) (enzyme)” showed a shift in mobility on SDS-PAGE [6] of 7 kDa.

Molecule “recombinant human α-galactosidase A secreted by CHO DG5.3 cells (enzyme)” has a Percent of Secreted α-Gal A Bound to SNA-Lectin [7] of 5%.

With tunicamycin the “inhibition of secretion of α-Gal A” value [3] was ≤ 80%.

B1: recombinant human α-galactosidase A (α-Gal A), secreted by CHO DG5.3 cells, purified (Homo sapiens) (protein)
chain: LDNGLARTPTMGWLHWERFMCNLDCQEEPDSCISEKLFMEMAELMVSEGWKDAGYEYLCIDDCWMAPQRDSEGRLQADPQRFPHGIRQLANYVHSKGLKLGIYADVGNKTCAGFPGSFGYYDIDAQTFADWGVDLLKFDGCYCDSLENLADGYKHMSLALNRTGRSIVYSCEWPLYMWPFQKPNYTEIRQYCNHWRNFADIDDSWKSIKSILDWTSFNQERIVDVAGPGGWNDPDMLVIGNFGLSWNQQVTQMALWAIMAAPLFMSNDLRHISPQAKALLQDKDVIAINQDPLGKQGYQLRQGDNFEVWERPLSGLAWAVAMINRQEIGGPRSYTIAVASLGKGVACNPACFITQLLPVKRKLGFYEWTSRLRSHINPTGTVLLQLENTMQMSLKDLL
Work on B1 yielded a Km [8] of 1900 µM.
